One data set addresses T1, ELK1 (Homo sapiens, UniProt P19419).
T1 construct: His; made in house; host or cells: baculovirus infected Sf9 cells
Briefly: Surface plasmon resonance, compound binding to immobilized ELK1. To be noted: SPR.

In data set [1] the test system is AR target genes in 22Rv1 CRPC cells. Briefly: Real time RT-PCR of AR target gene mRNAs in 22Rv1 cells. The class given is cell-based, human. Conditions: 22Rv1, 10 μM, 72h. On the procedure: FIG. 3D is a graph showing that in 22Rv1 cells were treated with 10 μM of KCI807 for 72h and real time RT-PCR was used to measure mRNAs for the indicated panel of genes tested in FIG. 3B and FIG. 3C.
Total RNA was isolated from cells using the RNeasy Mini Kit (Qiagen). Reverse transcription PCR was then performed using 500 ng of total RNA with random primers and using the high-capacity complementary DNA Archive kit (Applied Biosystems). The complementary DNA from this reaction was measured using quantitative real time PCR using the StepONE Plus Real Time PCR system (Life Technologies Corporation, Carlsbad, Calif.). All reactions were performed in triplicate and normalized to glyceraldehyde-3-phosphate-dehydrogenase values in the same samples. All primers and Taqman probes were purchased from the applied Biosystems inventory (Invitrogen)
To test the selectivity of KCI807 for ELK1-dependent gene activation by AR vs. other target genes of the receptor, 22Rv1 CRPC cells, which are dependent on both full length AR and AR-V7 for hormone-independent growth, were used. […]

Data set [2] has as its system HeLa (cervical cancer cells), AR-negative. Briefly: Cell monolayer growth assay (MTT). The data set is classed as cell-based. On the procedure: FIG. 12B is a graph showing the effect of KCI807 on in vitro growth of AR-negative cell line HeLa cells measured by the MTT assay. All values were plotted relative to the Day zero value. Cells were trypsinized and 3000-4000 cells/well were seeded in 96-well plates coated with poly-D-lysine. The cells were seeded in phenol red-free medium supplemented with 10% FBS, 100 units/ml penicillin, 100 μg/ml streptomycin, 2 mM L-glutamine mixture and sodium pyruvate (1 mM) for LNCaP cells and phenol red-free medium supplemented with 10% FBS, 100 units/ml penicillin, 100 μg/ml streptomycin and 2 mM L-glutamine mixture for VCaP, 22Rv1, DU145, HeLa, HEK293 and H1650 cells. The cells were grown at 37° C. in 5% CO2. Twenty four hours after seeding in the 96-well plates, the cells were treated with the indicated concentration of KCI807 or DMSO (vehicle). The cells were re-treated on Day 3 by removing half the volume of medium and replacing it with fresh treated medium. Cell viability was determined using the MTT assay from day zero until day five. MTT (10 μL, 5 mg/mL) was added to each well and incubated for 2h at 37° C. The formazan crystal sediments were dissolved in 100 μL of DMSO, and the absorbance at 570 nm was measured using the BioTek Synergy 2 Microplate Reader (BioTek, Winooski, Vt.). The assay was conducted in sextuplicate wells and values were normalized to day zero.

In data set [3] the test system is protein level of AR or AR-V7. Briefly: Western blot of AR in LNCaP, VCaP and 22Rv1 cells. The data set is classed as cell-based. Conditions: VCaP, 10 μM, 24h. The method, then:
Protein lysates were extracted after 24h of treatment and probed using antibodies to AR and GAPDH (loading control).
The treated cells were washed once with phosphate buffered saline (PBS) and then lysed with RIPA buffer (150 mM NaCl, 1% Nonidet P-40, 0.5% sodium deoxycholate, 0.1% SDS, 50 mM Tris of pH 8.0) containing a protease inhibitor cocktail (Pierce, Thermo Fisher Scientific). The cell lysates were then incubated on ice for 40 minutes and vortexed every 10 minutes. Total protein concentrations were estimated using the Bradford Assay (Bio-Rad). Ten micrograms of each protein sample was heated at 95° C. for 5 minutes and resolved by electrophoresis on 8% polyacrylamide-SDS gels and electrophoretically transferred to PVDF membranes (Millipore, Billerica, Mass.). The membranes were then probed overnight at 4° C. with the appropriate primary antibody followed by the appropriate horseradish peroxidase-conjugated secondary antibody. The blots were then developed to visualize the protein bands using the HyGLO

The nature of data set [4]: Body weight and condition of mice in the 22Rv1 xenograft study. Conditions: 22Rv1 study.

T1 sequence (P19419 whole entry): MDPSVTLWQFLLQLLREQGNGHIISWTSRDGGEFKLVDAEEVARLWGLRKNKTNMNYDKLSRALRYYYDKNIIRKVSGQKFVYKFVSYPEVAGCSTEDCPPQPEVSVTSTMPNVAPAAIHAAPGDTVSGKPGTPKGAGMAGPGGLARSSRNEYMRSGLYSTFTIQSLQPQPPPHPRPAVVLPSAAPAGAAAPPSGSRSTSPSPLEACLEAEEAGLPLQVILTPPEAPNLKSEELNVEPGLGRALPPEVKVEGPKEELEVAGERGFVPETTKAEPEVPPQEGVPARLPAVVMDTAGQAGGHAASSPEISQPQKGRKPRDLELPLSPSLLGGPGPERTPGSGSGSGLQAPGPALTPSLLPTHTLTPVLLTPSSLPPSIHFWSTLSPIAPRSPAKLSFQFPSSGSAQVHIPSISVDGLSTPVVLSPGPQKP

As for `O=c1cc(-c2cccc(O)c2)oc2cccc(O)c12` [KCI807, 5,3′-dihydroxyflavone], the “binding to immobilized ELK1” value on ELK1 is recorded as “did not bind”. Also, the “effect on mRNA of AR target genes” value in data set [1] is “decreased expression of only the genes known to be supported synergistically by ELK1 and AR”. For the same compound, in data set [2], the “growth of HeLa cells” value was “did not appreciably affect the growth”. Further, the “protein level of AR or AR-V7” value in data set [3] is reported as “in no case did KCI807 treatment alter the protein level”.

Turning to `CNC(=O)c1ccc(N2C(=S)N(c3ccc(C#N)c(C(F)(F)F)c3)C(=O)C2(C)C)cc1F` [enzalutamide], the “% body weight lost/gained” value in data set [4] (Day 0 after tumor implantation) is given as 0%; in data set [4] (Day 6 after tumor implantation), “+3.7%”; in data set [4] (Day 11 after tumor implantation) it was “+5.5%”; in data set [4] (Day 14 after tumor implantation), “+3.7%”; in data set [4] (Day 17 after tumor implantation), “+4.6%”; in data set [4] (Day 20 after tumor implantation) it was “+4.6%”. In addition, the “% body weight lost/gained” value in data set [4] (Day 24 after tumor implantation) is on record as “+4.6%”; in data set [4] (Day 25 after tumor implantation) it was “+3.7%”.

Source of the values: patent US11185527B2, “Methods and compositions relating to steroid hormone receptor-dependent cancers” (Wayne State University, priority 2017, dated 2021).
